Here are results for one molecule from US20250295627A1 (Leibniz-Institut Fuer Neurobiologie, priority 2022, published 2025).

For one assay, the system named is hippocampal neurons. The assay can be described thus: Aβ-induced synapse loss (synaptophysin/Shank3 puncta) in dissociated hippocampal neurons. The class given is cell-based, rat. Conditions: 5 μM Nitarsone, 48 h, 500 nM Aβ1-42. The procedure: Hippocampal and cortical cultures were prepared from Wistar rat embryos (E18) of mixed sex as described previously (Spilker et al., 2016). Briefly, dissected were digested for 15 min with trypsin at 37° C. Neurons were plated on plastic 12-well dishes (Greiner) on glass coverslips coated with poly-L-lysine (Sigma-Aldrich) at a density of 60 000 cells/well in DMEM medium (Gibco, Thermo Fisher Scientific) supplemented with 10% FCS, 1× penicillin/streptomycin, and 2 mM glutamine. After 1 h incubation (at the 37° C., 5% CO2, 95% humidity) cells were kept in BrainPhys medium supplemented with 1% SM1 (Stemmcell Technologies), 0.5 mM Glutamine (Gibco) at 37° C., 5% CO2 and 95% humidity. […]
For quantitation of nuclear staining intensity (pCREB or CREB) somatic regions were sequentially scanned using the 63× objective (Leica) in both: Leica TCS SP8-STED and Leica TCS SP5 systems. […] Unprocessed images were analysed using Fiji/ImageJ software (Schindelin et al., 2012). For visualization of the quantified channel a fire look-up table (LUT) was used. Synaptic density was quantified in secondary dendrites using Fiji/ImageJ (Schindelin et al., 2012). […] Intensity of the GluA1 channel was measured in ROIs defined by a Shank3 mask as a readout for surface AMPAR expression.

For a further assay, the system named is TBA2.1 and 5×FAD mice. Put plainly: Novel object recognition and location. Format: in vivo, mouse. From the text: . For TBA2.1 mice (both sexes), treatment started at the age of 4 weeks. The animals were group housed and force fed for 4 weeks. […] Treatment in 5×FAD male mice started at the age of 12 weeks. Here, animals were single housed right away and given a choice between voluntary and forced feeding. […] During the course of the 7th week of treatment, animals were either subjected to perfusion to obtain their brains for subsequent immunohistochemistry or they were culled to obtained native brains for electrophysiological recordings.
The hippocampus-dependent memory was assessed using a novel object location and novel object recognition tasks. Assays were performed as described elsewhere (Andres-Alonso et al., 2019). Briefly, training and testing were done in an open field square arena made out of plastic (50 cm×50 cm). The mice were habituated in the empty arena for 20 min. Subsequently, 2 identical objects were introduced to the maze and the animals could explore the objects in 2 training session, 20 min each. 2 h afterwards, in the memory test phase, one object was replaced with an unfamiliar, unknown object (novel object recognition). Afterwards, the location of one object was changed ([…]). During all sessions, the amount of time the animals explored the objects was recorded, and a discrimination index was calculated using the formula DI=[(Tnew−Tfamiliar)/(Tnew+Tfamiliar)]*100. The arena was cleaned with 5% ethanol before and after each animal was tested.

For the next assay, the system named is pCREB. The assay can be described thus: pCREB in primary cortical cultures overexpressing poly(GA) aggregates (ALS model). The class given is cell-based, rodent. Conditions: 5 µM nitarsone, 48 hours.

For the molecule `O=[N+]([O-])c1ccc([As](=O)(O)O)cc1` [Nitarsone, (4-nitrophenyl) arsonic acid], the Aβ-induced synapse loss result in the assay on hippocampal neurons is reported as “completely prevented”. Besides, in the assay on TBA2.1 and 5×FAD mice (5×FAD mice), the “memory in novel location recognition task” value is “rescued memory” and the “memory in novel object recognition task” value is recorded as “rescued memory”. Also, in the assay on TBA2.1 and 5×FAD mice (TBA2.1 mice), the “memory in novel location recognition task” value is listed as “rescued memory” and the “memory in novel object recognition task” value is “rescued memory”. For the same molecule, in the assay on pCREB (control cells (poly (GA)-negative)), the pCREB nuclear immunoreactivity entry is reported as “do not display any change”. The “poly (GA)-induced decrease in pCREB nuclear immunoreactivity” value with pCREB (poly-(GA) 175-EGFP-transduced cells) is listed as “completely rescued”.
